Tests used:
CAR T cells [1] = assay: CAR T cell expansion assay (live cell analysis) in coculture with Eμ-myc cells with or without macrophages; assay type: cell-based, mouse; conditions: over 48 h
Procedure: To explore how M2-like macrophages may impact the cellular function of CAR T cells, a syngeneic coculture system was employed (FIG. 2A). […] The BMDMs were differentiated into M2-like macrophages (imMac) by culturing with IL-4 and IL-10 or with media alone without further differentiation to utilize as unpolarized macrophage controls (unMac). The mCherry reporter served as a marker for CAR transduction and CAR T cell expansion.
The expansion of CAR T cells was determined by an Incucyte S3 live cell analysis system (Essen Bioscience). 2×10^4 Eμ-myc cells and 2×10^4 CAR T cells were cocultured in the absence or presence of 0.5×10^4 macrophages (CAR T:Eμ-myc cell:Macrophage=1:1:0.25, unless otherwise indicated in the figure legends) in a 96-well black-walled clear bottom plate in 120 μl of media. Cell images were captured at 4× magnification. The expansion index was calculated by dividing the total integrated red intensity (RCU×μm^2/mm^2) at each time point by the first time point.

IFN-γ and TNF-α = assay: Cytokine secretion assay with CAR T cells isolated from initial coculture; assay type: cell-based, mouse; conditions: for secretion of effector cytokines IFN-γ and TNF-α by CAR T cells: 48 h initial coculture with Eμ-myc cells in presence of NCX-4016 (100 µM) or PNT (50 μM), no macrophages, supernatants at 24 h
Procedure: (§1) 1×10^6 CAR T cells and 1×10^6 Eμ-myc-GFP-FFL cells were cocultured in the absence or presence of 0.25×10^6 macrophages in a 6-well plate in 6 ml of media for 48 h. After initial coculture, cells were harvested, and T cells were isolated using Mouse T Cell Isolation Kit ([…] Technologies). […] Percentage of CAR-expressing T cells was determined with flow cytometry and were subsequently used for downstream assays.
2×10^4 Eμ-myc cells were cocultured with 2×10^4 CAR T cells in a 96-well plate in a total volume of 100 μl of media. Supernatants were collected and analyzed for IFN-γ and TNF-α secretion using Ella automated immunoassay system (Proteinsimple Bio-techne) according to manufacturer's instructions.

Eμ-myc cells = assay: Luciferase-based killing assay with CAR T cells isolated from initial coculture; assay type: cell-based, mouse; conditions: for ability of CAR T cells to kill tumor cells: 48 h initial coculture with Eμ-myc cells in presence of NCX-4016 (100 µM) or PNT (50 µM), no macrophages, lysis at 24 h
Procedure: as §1
2×10^4 Eu-ALL-GFP-FFL cells were cocultured with CAR T cells at different effector-to-target ratios in a 96-well white-walled plate in 100 μl of media. Following incubation, 100 μl luciferase substrate reagent (ONE-Glo Luciferase assay system, Promega) was added to each well. Target cells alone were plated at the same cell density to determine maximum luciferase signals. Emitted luminescence was detected in the microplate reader (GloMax, Promega). Percent lysis was determined as (1-sample signal/maximum signal)×100.

CAR T cells [2] = assay: Global metabolomics on CAR T cells from coculture; assay type: cell-based, mouse; conditions: 48 h coculture with imMac
Procedure: (§2) 1×10^6 CAR T cells and 1×10^6 Eμ-myc-GFP-FFL cells were cocultured in the absence or presence of 0.25×10^6 macrophages in a 6-well plate in 6 ml of media for 48 h. After initial coculture, cells were harvested, and T cells were isolated using Mouse T Cell Isolation Kit (STEMCELL Technologies). T cell purity was 100% as tested by flow cytometry. Percentage of CAR-expressing T cells was determined with flow cytometry and were subsequently used for downstream assays.
Global metabolomic profiling and 13C6-labeled glucose tracing of CAR T cells, 1×10^6 T cells were resuspended in either RPMI-1640 medium (RPMI+10% heat-inactivated dialyzed FBS) or 13C6-glucose substituted RPMI-1640 medium (glucose-free RPMI+10% heat-inactivated dialyzed FBS+11.1 mM ^13C6-glucose). After 4 h incubation, cells were collected, rapidly centrifuged (17,000×g, 10 sec, room temperature), and medium was removed. T cells were washed with 1 ml of ice-cold PBS, and metabolites were extracted with 300 μl of 80% methanol via incubation at −80° C. for 15 min. Samples were centrifuged (17,000×g, 20 min, 4° C.), and supernatants were transferred to an Eppendorf tube and dried in a vacuum evaporator overnight. The dried extracts were resuspended in 20 μl of aqueous 50% methanol, clarified by centrifugation (17,000×g, 20 min, room temperature), and analyzed by LC-HRMS. […]

Eμ-myc B cell tumors = assay: Survival of Eμ-myc tumor-bearing Rag1−/− mice treated with CAR T cells; assay type: in vivo, mouse; conditions: combination of 1928z CAR T cells and L-NIL (20 mg/kg i.p. once per day) compared to 1928z CAR T cells alone
Procedure: Six-to 10-week-old Rag1/-mice of both sexes were intraperitoneally (i.p.) injected with 3×10^6 Eμ-myc-GFP-FFL cells to generate tumors localized in peritoneal cavity. Tumor engraftment was verified by bioluminescence imaging one day before CAR T cell transfer. Mice were randomized to different treatment groups without differences in pre-treatment tumor load. Seven days after tumor cell inoculation, mice were injected i.p. with 5×10^6 CAR T cells in 300 μl PBS. For survival experiments, L-NIL or PBS was administered i.p. once per day at 20 mg/kg body weight starting on the same day of tumor cell injection. […] Bioluminescence imaging was performed by IVIS Lumina III In Vivo Imaging System (PerkinElmer) with Living Image software (PerkinElmer).

CAR T cells [3] = assay: Seahorse assay (ECAR, OCR) on CAR T cells from coculture; assay type: cell-based, mouse; conditions: 48 h coculture in the presence of imMac
Procedure: as §2
ECAR and OCR were measured using a Seahorse Extracellular Flux Analyzer (Agilent Technologies). XF96 microplates were coated with CellTak a day before analyses. To assay glycolytic function, T cells were resuspended in glucose-free XF medium supplied with 2 mM L-glutamine and 1 mM sodium pyruvate and seeded at 2×10^5 cells in 180 μl per well. Following incubation in a CO2-free incubator for 60 min at 37° C. for pH stabilization, ECAR was measured in response to 10 mM glucose, 1 μM oligomycin, and 50 mM 2-deoxyglucose. To assay mitochondrial function, T cells were resuspended in XF medium supplied with 2 mM L-glutamine, 1 mM sodium pyruvate, and 10 mM glucose and seeded at 2×10^5 cells in 180 μl per well. Following incubation in a CO2-free incubator for 60 min at 37° C. for pH stabilization, OCR was measured in response to 1 μM oligomycin, 1 μM FCCP, and 0.5 µM rotenone and antimycin.

[4] = CAR T cells cocultured with Eμ-myc cells without macrophages
[5] = cocultures of CAR T cells and Eμ-myc cells with imMac

## C=C(CC(=O)OCCCCCCCC)C(=O)O [4-OI, 4-octyl itaconate]
CAR T cells [1]; [4]
  CAR T cell expansion: impaired CAR T cell expansion

## CC(=N)NCCCC[C@H](N)C(=O)O [L-NIL, L-N6-(1-Iminoethyl)-lysine]
IFN-γ and TNF-α; CAR T cells isolated after 48 h initial coculture with imMac, then cocultured with fresh Eμ-myc cells
  production of effector cytokines IFN-γ and TNF-α by CAR T cells: preserved
CAR T cells [1]; [5]
  CAR T cell expansion: complete rescue of CAR T cell expansion
Eμ-myc cells; CAR T cells isolated after 48 h initial coculture with imMac, then cocultured with fresh Eμ-myc cells, 24 h
  capacity of CAR T cells to kill (lyse) tumor cells: preserved the capacity of CAR T cells to kill tumor cells
CAR T cells [2]
  depletion of F1,6BP, G3P and DHAP in CAR T cells cocultured with imMac: reversal
Eμ-myc B cell tumors
  survival of tumor-bearing mice: significantly improved survival
CAR T cells [3]
  glycolytic and oxidative metabolic capabilities of CAR T cells (ECAR, OCR): preserved glycolytic and oxidative metabolic capabilities of CAR T cells

## CC(=O)Oc1ccccc1C(=O)Oc1cccc(CO[N+](=O)[O-])c1 [NCX-4016]
IFN-γ and TNF-α
  secretion of effector cytokines IFN-γ and TNF-α by CAR T cells: diminished
CAR T cells [1]; [4]
  CAR T cell expansion: inhibition of CAR T cell expansion
Eμ-myc cells
  ability of CAR T cells to kill tumor cells: diminished ability of CAR T cells to kill tumor cells

## O=NOO [PNT, peroxynitrite]
IFN-γ and TNF-α
  secretion of effector cytokines IFN-γ and TNF-α by CAR T cells: diminished
CAR T cells [1]; [4]
  CAR T cell expansion: inhibition of CAR T cell expansion
Eμ-myc cells
  ability of CAR T cells to kill tumor cells: diminished ability of CAR T cells to kill tumor cells

## CC1(C)N([O])C(c2ccc(C(=O)O)cc2)=[N+]([O-])C1(C)C [c-PTIO, carboxyl-PTIO]
CAR T cells [1]; [5]
  CAR T cell expansion: partially rescued expansion of CAR T cells

## NC(=O)NCCC[C@H](N)C(=O)O [citrulline]
CAR T cells [1]; [4]
  CAR T cell expansion: did not impact expansion of CAR T cells

## N=C(NO)NCC[C@H](N)C(=O)O [nor-NOHA]
CAR T cells [1]; cocultures with imMac, physiological arginine concentration (150 μM)
  CAR T cell expansion: failed to rescue CAR T cell expansion
CAR T cells [1]; cocultures with imMac, supraphysiological arginine concentration (1.15 mM)
  CAR T cell expansion: did not restore CAR T cell expansion
